Test results: PMC6754450, “Antimicrobial activity and mechanism of action of a novel peptide present in the ecdysis process of centipede Scolopendra subspinipes subspinipes” (Scientific Reports, 2019)
≈ marks a conversion by molar mass, not a printed value. Where a SMILES comes first, the peptide text is derived from it.

Experiments:
[1] = test system: All of the microorganisms tested; experiment: Antimicrobial activity, summary over all microorganisms tested; type: cell-based; conditions: summary of Table 1; 17 bacterial, yeast and fungal strains
Experimental: (§1) During the purification procedure, the antimicrobial activities of the fractions were monitored by liquid growth inhibition assays against E. coli SBS 363, M. luteus A270, A. niger, and C. albicans MDM8. Bacteria were cultured in poor nutrient broth (PB) (1.0 g peptone in 100 mL of water containing 86 mM NaCl at pH 7.4; 217 mOsm), and fungi and yeasts were cultured in poor potato dextrose broth (1/2- strength PDB) (1.2 g potato dextrose in 100 mL of water at pH 5.0; 79 mOsm). Determination of antimicrobial activity was performed as previously described[12]–[14].
(§2) The MIC is defined as the minimum concentration of peptide required to achieve 100% growth inhibition. […] The two peptides were dissolved in ultrapure water at a final concentration of 1 mM. […] MBCs were determined after 96 h of incubation at 30 °C. The lowest concentration with no visible growth was defined as the MBC, indicating 99.5% killing of the original inoculum. Microbial growth was measured by monitoring the increase in optical density at 595 nm using a Victor 3TM 1420 multilabel counter (PerkinElmer, Waltham, MA, USA). Assays were performed in triplicate.

[2] = 25% fresh human blood plasma in water, 37 °C; 20 µL of 10 mg/mL peptide stock in 1 mL; TFA quench; LC/ESI-MS peak area; triplicate; followed over 360 min
Experimental: An aliquot (20 μL) of the aqueous peptide stock solution (10 mg/mL) was added to 1 mL of 25% solution of fresh human blood plasma in water at 37 °C. Aliquots (50 μL) were withdrawn and added to 5 μL of pure trifluoroacetic acid (TFA) at different time intervals, then incubated at 5 °C for 15 min. Following incubation, the resulting mixtures were centrifuged at 3000 g for 5 min. The supernatants (20 μL) were injected into an online LC/ESI-MS equipment. Elution was performed using an ACN/TFA linear gradient of 3% to 57% ACN at a flow rate of 0.3 mL/min for 30 min. The remaining peptide was monitored by the corresponding peak area in the chromatogram. Assays were conducted in triplicate.
The human blood sample was obtained from a healthy adult donor at Vital Brazil Hospital in accordance with Ethical Guidelines of the Butantan Institute (protocol CEUAIB No. I-1043/13). Written informed consent was obtained from the donor.

[3] = test system: Alcaligenes faecalis ATCC 8750; experiment: Liquid growth inhibition assay (MIC/MBC); type: cell-based; conditions: PB medium, highest concentration tested 100 µM, triplicate
Experimental: as §1, §2

Aspergillus niger = experiment: Liquid growth inhibition assay (MIC/MBC); type: cell-based; conditions: 1/2-strength PDB, highest concentration tested 100 µM, triplicate
Experimental: as §1, §2

[4] = test system: Bacillus megaterium ATCC 10778; experiment: Liquid growth inhibition assay (MIC/MBC); type: cell-based; conditions: PB medium, highest concentration tested 100 µM, triplicate
Experimental: as §1, §2

[5] = test system: Bacillus subtilis ATCC 6633; experiment: Liquid growth inhibition assay (MIC/MBC); type: cell-based; conditions: PB medium, highest concentration tested 100 µM, triplicate
Experimental: as §1, §2

Beauveria bassiana = experiment: Liquid growth inhibition assay (MIC/MBC); type: cell-based; conditions: 1/2-strength PDB, highest concentration tested 100 µM, triplicate
Experimental: as §1, §2

Candida albicans MDM8 = experiment: Liquid growth inhibition assay (MIC/MBC); type: cell-based; conditions: 1/2-strength PDB, highest concentration tested 100 µM, triplicate
Experimental: as §1, §2

[6] = test system: Candida tropicalis IOC 4560; experiment: Liquid growth inhibition assay (MIC/MBC); type: cell-based; conditions: 1/2-strength PDB, highest concentration tested 100 µM, triplicate
Experimental: as §1, §2

[7] = test system: Enterobacter cloacae β-12; experiment: Liquid growth inhibition assay (MIC/MBC); type: cell-based; conditions: PB medium, highest concentration tested 100 µM, triplicate
Experimental: as §1, §2

Escherichia coli D31 = experiment: Liquid growth inhibition assay (MIC/MBC); type: cell-based; conditions: PB medium, highest concentration tested 100 µM, triplicate
Experimental: as §1, §2

Escherichia coli SBS 363 = experiment: Liquid growth inhibition assay (MIC/MBC); type: cell-based; conditions: PB medium, highest concentration tested 100 µM, triplicate
Experimental: as §1, §2

Micrococcus luteus A270 = experiment: Liquid growth inhibition assay (MIC/MBC); type: cell-based; conditions: PB medium, highest concentration tested 100 µM, triplicate
Experimental: as §1, §2

[8] = test system: Pseudomonas aeruginosa ATCC 27853; experiment: Liquid growth inhibition assay (MIC/MBC); type: cell-based; conditions: PB medium, highest concentration tested 100 µM, triplicate
Experimental: as §1, §2

[9] = test system: Saccharomyces cerevisiae PM340; experiment: Liquid growth inhibition assay (MIC/MBC); type: cell-based; conditions: 1/2-strength PDB, highest concentration tested 100 µM, triplicate
Experimental: as §1, §2

[10] = test system: Salmonella Arizonae ATCC 13314; experiment: Liquid growth inhibition assay (MIC/MBC); type: cell-based; conditions: PB medium, highest concentration tested 100 µM, triplicate
Experimental: as §1, §2

[11] = test system: Salmonella Typhimurinum ATCC 14028; experiment: Liquid growth inhibition assay (MIC/MBC); type: cell-based; conditions: PB medium, highest concentration tested 100 µM, triplicate
Experimental: as §1, §2

[12] = test system: Serratia marcescens ATCC 4112; experiment: Liquid growth inhibition assay (MIC/MBC); type: cell-based; conditions: PB medium, highest concentration tested 100 µM, triplicate
Experimental: as §1, §2

[13] = test system: Staphylococcus aureus ATCC 29213; experiment: Liquid growth inhibition assay (MIC/MBC); type: cell-based; conditions: PB medium, highest concentration tested 100 µM, triplicate
Experimental: as §1, §2

human erythrocytes = experiment: Haemolytic activity; type: cell-based; conditions: 3% erythrocytes in PBS, 3 h, 37 °C; for Haemolysis (%): A414, relative to 0.1% Triton X-100, triplicate
Experimental: Absorbance in the supernatant was measured at 414 nm. The haemolysis percentage was expressed in relation to a 100% lysis control (erythrocytes incubated with 0.1% Triton X-100); PBS was used as a negative control. Assays were conducted in triplicate.
Red blood cells were obtained under the same conditions and from the same donor mentioned in the plasma stability assay section.

[14] = 100% growth inhibition, two-fold serial dilution, 30 °C, 18 h
[15] = no visible growth after 96 h at 30 °C

**Q.** With `CC(=O)N[C@H](C(=O)N[C@@H](C)C(=O)N[C@@H](CCC(=O)O)C(=O)N[C@@H](C)C(=O)N[C@@H](CCCNC(=N)N)C(=O)N[C@@H](CCC(N)=O)C(=O)NCC(=O)N[C@@H](CO)C(=O)N[C@@H](Cc1ccccc1)C(=O)N[C@@H](CO)C(=O)N[C@@H](Cc1ccc(O)cc1)C(N)=O)C(C)C` [Pinipesin AC] (Ac-VAEARQGSFSY-NH2) as the compound, how does the “Concentrations at which active against all microorganisms tested” value [1] read?
**A.** did not show antimicrobial activity

**Q.** And the “Time within which peptide is almost totally digested in human plasma” value [2]?
**A.** ≤ 60 min

**Q.** Which MIC [3, 14] does the source give for `CC(C)[C@H](N)C(=O)N[C@@H](C)C(=O)N[C@@H](CCC(=O)O)C(=O)N[C@@H](C)C(=O)N[C@@H](CCCNC(=N)N)C(=O)N[C@@H](CCC(N)=O)C(=O)NCC(=O)N[C@@H](CO)C(=O)N[C@@H](Cc1ccccc1)C(=O)N[C@@H](CO)C(=O)N[C@@H](Cc1ccc(O)cc1)C(=O)O` [Pinipesin] (H-VAEARQGSFSY-OH) here?
**A.** 15.16 µg/mL (≈ 12.5 µM)

**Q.** And the MBC [3, 15]?
**A.** 15.16 µg/mL (≈ 12.5 µM)

**Q.** What about the MIC (Aspergillus niger; [14]) of the same compound?
**A.** 30.33 µg/mL (≈ 25 µM)

**Q.** And the MBC (Aspergillus niger; [15])?
**A.** 30.33 µg/mL (≈ 25 µM)

**Q.** And the MIC [4, 14]?
**A.** 15.16 µg/mL (≈ 12.5 µM)

**Q.** What about the MBC [4, 15] of the same compound?
**A.** 15.16 µg/mL (≈ 12.5 µM)

**Q.** And the MIC [5, 14]?
**A.** 30.33 µg/mL (≈ 25 µM)

**Q.** And the MBC [5, 15]?
**A.** 30.33 µg/mL (≈ 25 µM)

**Q.** And the MIC (Beauveria bassiana; [14])?
**A.** 30.33 µg/mL (≈ 25 µM)

**Q.** What about the MBC (Beauveria bassiana; [15]) of the same compound?
**A.** 30.33 µg/mL (≈ 25 µM)

**Q.** What about the MIC (Candida albicans MDM8; [14]) of the same compound?
**A.** 30.33 µg/mL (≈ 25 µM)

**Q.** And the MBC (Candida albicans MDM8; [15])?
**A.** 30.33 µg/mL (≈ 25 µM)

**Q.** What about the MIC [6, 14] of the same compound?
**A.** 30.33 µg/mL (≈ 25 µM)

**Q.** And the MBC [6, 15]?
**A.** 30.33 µg/mL (≈ 25 µM)

**Q.** What about the MIC [7, 14] of the same compound?
**A.** 30.33 µg/mL (≈ 25 µM)

**Q.** What about the MBC [7, 15] of the same compound?
**A.** 30.33 µg/mL (≈ 25 µM)

**Q.** What about the MIC (Escherichia coli D31; [14]) of the same compound?
**A.** 15.16 µg/mL (≈ 12.5 µM)

**Q.** And the MBC (Escherichia coli D31; [15])?
**A.** 15.16 µg/mL (≈ 12.5 µM)

**Q.** What about the MIC (Escherichia coli SBS 363; [14]) of the same compound?
**A.** 30.33 µg/mL (≈ 25 µM)

**Q.** What about the MBC (Escherichia coli SBS 363; [15]) of the same compound?
**A.** 30.33 µg/mL (≈ 25 µM)

**Q.** What about the MIC (Micrococcus luteus A270; [14]) of the same compound?
**A.** 7.58 µg/mL (≈ 6.24 µM)

**Q.** What about the MBC (Micrococcus luteus A270; [15]) of the same compound?
**A.** 15.16 µg/mL (≈ 12.5 µM)

**Q.** And the MIC [8, 14]?
**A.** 15.16 µg/mL (≈ 12.5 µM)

**Q.** What about the MBC [8, 15] of the same compound?
**A.** 15.16 µg/mL (≈ 12.5 µM)

**Q.** What about the MIC [9, 14] of the same compound?
**A.** 30.33 µg/mL (≈ 25 µM)

**Q.** And the MBC [9, 15]?
**A.** 30.33 µg/mL (≈ 25 µM)

**Q.** What about the MIC [10, 14] of the same compound?
**A.** 30.33 µg/mL (≈ 25 µM)

**Q.** What about the MBC [10, 15] of the same compound?
**A.** 30.33 µg/mL (≈ 25 µM)

**Q.** What about the MIC [11, 14] of the same compound?
**A.** 15.16 µg/mL (≈ 12.5 µM)

**Q.** And the MBC [11, 15]?
**A.** 15.16 µg/mL (≈ 12.5 µM)

**Q.** And the MIC [12, 14]?
**A.** 30.33 µg/mL (≈ 25 µM)

**Q.** And the MBC [12, 15]?
**A.** 30.33 µg/mL (≈ 25 µM)

**Q.** And the MIC [13, 14]?
**A.** 7.58 µg/mL (≈ 6.24 µM)

**Q.** And the MBC [13, 15]?
**A.** 7.58 µg/mL (≈ 6.24 µM)

**Q.** And the “Time within which peptide is almost totally digested in human plasma” value [2]?
**A.** ≤ 60 min

**Q.** And the “Haemolysis (%)” value (human erythrocytes; 4 µM peptide)?
**A.** 0%

**Q.** What about the “Haemolysis (%)” value (human erythrocytes; 8 µM peptide) of the same compound?
**A.** 0%

**Q.** What about the “Haemolysis (%)” value (human erythrocytes; 16 µM peptide) of the same compound?
**A.** 0%

**Q.** What about the “Haemolysis (%)” value (human erythrocytes; 32 µM peptide) of the same compound?
**A.** 0%

**Q.** What about the “Haemolysis (%)” value (human erythrocytes; 125 µM peptide) of the same compound?
**A.** 0%

**Q.** And the “Haemolysis (%)” value (human erythrocytes; 250 µM peptide)?
**A.** 0%

**Q.** What about the “Haemolysis (%)” value (human erythrocytes; 500 µM peptide) of the same compound?
**A.** 25.14%

**Q.** What about the “Haemoglobin release at the concentrations active against bacteria, yeasts and fungi” value (human erythrocytes) of the same compound?
**A.** No haemoglobin release was observed
